Experimental data reported in US8450313B2, “2,3-diaryl- or heteroaryl-substituted 1,1,1-trifluoro-2-hydroxypropyl compounds” (Hoffmann-La Roche Inc., priority 2009, dated 2013).

Target: T1, full length human recombinant glucocorticoid receptor (Homo sapiens, UniProt P04150)
T1 construct: It contains some partially purified full length human recombinant glucocorticoid receptor; purchased Panvera/Invitrogen PV4302
T1 sequence (P04150 1-777): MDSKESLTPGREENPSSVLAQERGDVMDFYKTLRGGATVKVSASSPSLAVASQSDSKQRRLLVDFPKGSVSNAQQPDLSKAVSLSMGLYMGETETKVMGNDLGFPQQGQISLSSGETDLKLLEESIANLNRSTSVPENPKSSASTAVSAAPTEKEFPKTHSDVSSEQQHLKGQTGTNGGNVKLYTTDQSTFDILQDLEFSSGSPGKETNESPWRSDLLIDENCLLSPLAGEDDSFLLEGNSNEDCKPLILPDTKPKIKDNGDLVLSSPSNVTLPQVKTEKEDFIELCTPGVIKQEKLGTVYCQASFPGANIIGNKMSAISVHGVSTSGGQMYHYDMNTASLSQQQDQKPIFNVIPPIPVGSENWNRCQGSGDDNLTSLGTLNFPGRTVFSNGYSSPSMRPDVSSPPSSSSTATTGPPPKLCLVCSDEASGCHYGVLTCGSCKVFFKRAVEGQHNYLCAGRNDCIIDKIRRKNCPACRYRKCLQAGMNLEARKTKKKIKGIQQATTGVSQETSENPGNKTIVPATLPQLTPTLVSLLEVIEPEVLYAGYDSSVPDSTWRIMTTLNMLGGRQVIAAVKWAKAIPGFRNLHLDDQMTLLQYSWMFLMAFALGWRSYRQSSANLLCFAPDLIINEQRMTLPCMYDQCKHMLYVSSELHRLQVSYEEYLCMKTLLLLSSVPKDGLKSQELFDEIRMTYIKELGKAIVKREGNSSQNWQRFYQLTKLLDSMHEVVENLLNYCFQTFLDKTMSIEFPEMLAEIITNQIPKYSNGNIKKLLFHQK
Test: Glucocorticoid Receptor Binding Assay (Glucocorticoid Receptor Competitor Assay far red kit, fluorescence polarization)
Details: competition with fluorescent GR ligand Fluormone GS Far Red, 3 hours at 22° C., pH 7.4; Ki calculated from IC50 by Cheng-Prusoff
How it was run: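 Compounds in serial dilution (from intermediate 4.2% DMSO stock) displace Fluormone GS Far Red from full-length human recombinant GR with stabilizing peptide, pH 7.4, incubated 3 hours at 22° C dark. Polarized fluorescence (610–660 nm) gives IC50 via sigmoidal fit, converted to Ki by Cheng-Prusoff.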

Row | Ki | Compound
1 | 2.1 nM | C[C@H](c1ccc(Oc2cc(C(=O)O)c(C(F)(F)F)cn2)cc1Cl)[C@@](O)(c1ccc2c(c1)n(C)c(=O)n2C)C(F)(F)F (stereo in doubt) [Example 110, 2-{3-Chloro-4-[2-(1,3-dimethyl-2-oxo-2,3-dihydro-1H-benzoimidazol-5-yl)-3,3,3-trifluoro-2-hydroxy-1-methyl-propyl]-phenoxy}-5-trifluoromethyl-isonicotinic acid]
2 | 36 nM | C[C@H](c1ccc(Oc2nc(C(F)(F)F)ccc2C(=O)O)cc1Cl)[C@@](O)(c1ccc2c(c1)n(C)c(=O)n2C)C(F)(F)F (stereo in doubt) [Example 111, 2-{3-Chloro-4-[2-(1,3-dimethyl-2-oxo-2,3-dihydro-1H-benzoimidazol-5-yl)-3,3,3-trifluoro-2-hydroxy-1-methyl-propyl]-phenoxy}-6-trifluoromethyl-nicotinic acid]
3 | 26.4 nM | C[C@H](c1ccc(Oc2ccc(C(F)(F)F)c(C(=O)O)n2)cc1Cl)[C@@](O)(c1ccc2c(c1)n(C)c(=O)n2C)C(F)(F)F (stereo in doubt) [Example 112, 6-{3-Chloro-4-[2-(1,3-dimethyl-2-oxo-2,3-dihydro-1H-benzoimidazol-5-yl)-3,3,3-trifluoro-2-hydroxy-1-methyl-propyl]-phenoxy}-3-trifluoromethyl-pyridine-2-carboxylic acid]
4 | 6.2 nM | C[C@H](c1ccc(Oc2c(C(=O)O)ccnc2Cl)cc1Cl)[C@@](O)(c1ccc2c(c1)n(C)c(=O)n2C)C(F)(F)F (stereo in doubt) [Example 113, 2-Chloro-3-{3-chloro-4-[2-(1,3-dimethyl-2-oxo-2,3-dihydro-1H-benzoimidazol-5-yl)-3,3,3-trifluoro-2-hydroxy-1-methyl-propyl]-phenoxy}-isonicotinic acid]

The remaining lines, values behind:

Row | Compound | Ki
5 | C[C@H](c1ccc(Oc2ncc(Cl)cc2C(=O)O)cc1Cl)[C@@](O)(c1ccc2c(c1)n(C)c(=O)n2C)C(F)(F)F (stereo in doubt) [Example 104, 5-Chloro-2-{3-chloro-4-[2-(1,3-dimethyl-2-oxo-2,3-dihydro-1H-benzoimidazol-5-yl)-3,3,3-trifluoro-2-hydroxy-1-methyl-propyl]-phenoxy}-nicotinic acid] | 1.6 nM
6 | C[C@H](c1ccc(Oc2ncccc2C(=O)O)cc1Cl)[C@@](O)(c1ccc2c(c1)n(C)c(=O)n2C)C(F)(F)F (stereo in doubt) [Example 105, 2-{3-Chloro-4-[2-(1,3-dimethyl-2-oxo-2,3-dihydro-1H-benzoimidazol-5-yl)-3,3,3-trifluoro-2-hydroxy-1-methyl-propyl]-phenoxy}-nicotinic acid] | 14.8 nM
7 | C[C@H](c1ccc(Oc2ncc(C(=O)O)cc2Cl)cc1Cl)[C@@](O)(c1ccc2c(c1)n(C)c(=O)n2C)C(F)(F)F (stereo in doubt) [Example 107, 5-Chloro-6-{3-chloro-4-[2-(1,3-dimethyl-2-oxo-2,3-dihydro-1H-benzoimidazol-5-yl)-3,3,3-trifluoro-2-hydroxy-1-methyl-propyl]-phenoxy}-nicotinic acid] | 0.4 nM
8 | C[C@H](c1ccc(Oc2cc(Cl)ncc2C(=O)O)cc1Cl)[C@@](O)(c1ccc2c(c1)n(C)c(=O)n2C)C(F)(F)F (stereo in doubt) [Example 108, 6-Chloro-4-{3-chloro-4-[2-(1,3-dimethyl-2-oxo-2,3-dihydro-1H-benzoimidazol-5-yl)-3,3,3-trifluoro-2-hydroxy-1-methyl-propyl]-phenoxy}-nicotinic acid] | 10.4 nM
9 | C[C@H](c1ccc(Oc2cc(Cl)c(C(=O)O)cn2)cc1Cl)[C@@](O)(c1ccc2c(c1)n(C)c(=O)n2C)C(F)(F)F (stereo in doubt) [Example 109, 4-Chloro-6-{3-chloro-4-[2-(1,3-dimethyl-2-oxo-2,3-dihydro-1H-benzoimidazol-5-yl)-3,3,3-trifluoro-2-hydroxy-1-methyl-propyl]-phenoxy}-nicotinic acid] | 1.1 nM
